Data as given in patent US12594227B2, “Tetrapeptide and compositions comprising tetrapeptides” (THE BOOTS COMPANY PLC, priority 2020, dated 2026).
The star is where a group is joined. Palmitoyl = CCCCCCCCCCCCCCCC(=O)*

Experiments:
[1] = tested on: LGALS3; assay: LC-MS/MS relative protein abundance in secretome/matrisome of HDFs: LGALS3; assay type: cell-based, human; conditions: 8 ppm peptide, seven-day culture
Description: (§1) Following incubation with the peptides, liquid chromatography tandem mass spectrometry (LC-MS/MS) was used to quantify the relative abundance differences between proteins identified in the secretome/matrisome, versus an untreated control. HDFs from a donor, plated at 50,000 cells per well, were cultured with either peptide dissolved in cell culture media to achieve a final concentration of 8 ppm or with media without any peptide as a negative control. Treated and control cells were tested in triplicate. The cells were cultured as normal for five days in serum-supplemented media and then for a further two days in serum-free media (seven-day culture in total). The cell media containing the secretome (the proteins secreted by the cell) and the ECM, decellularized by incubation with EDTA (ethylenediaminetetraacetic acid), containing the matrisome (the collection of ECM associated proteins) were collected. The combined secretome and the matrisome compartments were subsequently analysed by LC-MS/MS using the following protocol.
(§2) Proteins were denatured (in urea), reduced (in dithiothreitol) and mechanically disassociated (using ultrasonication) prior to overnight digestion with trypsin (SMART Digest™ trypsin kit; Thermo Fisher). After digestion, samples were cleaned of contaminants up by removal of organic molecules and surfactants using biphasic extraction and desalted using OLIGO™ R3 Reversed Phase Resin (Thermo Fisher).
(§3) Samples (200 ng) were ran on an UltiMate® 3000 Rapid Separation Liquid Chromatographer coupled to a Q Exactive™ Hybrid Quadrupole-Orbitrap™ Mass Spectrometer for 90-minutes per sample run. Spectral data was searched again the Uniprot Human proteome database using Mascot v2.5.1. Subsequent protein identification and data-dependent quantification was performed using Progenesis QI. Normalised protein abundances were compared between each peptide treatment and control. Statistical analysis was performed within Progenesis QI using a between sample ANOVA.
(§4) The mass spectrometry data for each peptide is shown below in table 3 and FIG. 1. […] These protein families were as follows: proteoglycans, UV DNA repair proteins, basement membrane protein and cell-adhesion proteins; functional protein families with a potentially important role in dermal repair and remodelling.
(§5) The results of the above mass spectrometry experiments wherein a range of tetrapeptides are applied to HDFs to elicit a response in the expression of dermal extracellular proteins are provided in table 3 below. The protein family which the protein belongs to is also shown. Mass spectrometry results using peptide sequences, according to the invention (column 1) and not according to the present invention (columns 2, 3 and 4), are also presented within the table for comparison.

[2] = tested on: CDH2; assay: LC-MS/MS relative protein abundance in secretome/matrisome of HDFs: CDH2; assay type: cell-based, human; conditions: 8 ppm peptide, seven-day culture
Description: as §1, §2, §3, §4, §5

[3] = tested on: LAMB2; assay: LC-MS/MS relative protein abundance in secretome/matrisome of HDFs: LAMB2; assay type: cell-based, human; conditions: 8 ppm peptide, seven-day culture
Description: as §1, §2, §3, §4, §5

[4] = tested on: RAD23A; assay: LC-MS/MS relative protein abundance in secretome/matrisome of HDFs: RAD23A; assay type: cell-based, human; conditions: 8 ppm peptide, seven-day culture
Description: as §1, §2, §3, §4, §5

[5] = tested on: CSPG2; assay: LC-MS/MS relative protein abundance in secretome/matrisome of HDFs: CSPG2; assay type: cell-based, human; conditions: 8 ppm peptide, seven-day culture
Description: as §1, §2, §3, §4, §5

[6] = tested on: NID1; assay: LC-MS/MS relative protein abundance in secretome/matrisome of HDFs: NID1; assay type: cell-based, human; conditions: 8 ppm peptide, seven-day culture
Description: as §1, §2, §3, §4, §5

[7] = tested on: Collagen 1 (PIP); assay: ELISA assay of collagen I (via PIP) in culture supernatant of human dermal fibroblasts; assay type: cell-based; conditions: 5 ppm peptide; normal human dermal fibroblasts; 72 hours; ELISA weighted to viable cells
Description: (§6) An ELISA is an immunological assay commonly used to measure presence and abundance of a specific proteins (antibodies, antigens, proteins and glycoproteins) in biological samples. In this case ELISAs are being used to quantify the expression of dermal extracellular proteins collagen-1, decorin, and fibronectin. The quantity of collagen I is evaluated via the quantity of PIP (“carboxU-terminal pro-peptide of procollagen type I”) which is a peptide fragment resulting from the enzymatic degradation of procollagen present outside the fibroblast in the culture supernatant medium. […]
(§7) Normal human dermal fibroblasts cells (HDFs) were cultured in contact with the tetrapeptides of the present invention, or composition without the peptide (negative control), for 72 hours. Thereafter the cultured supernatants were removed, and the quantity of dermal extracellular proteins determined using an ELISA assay for the protein of interest. For the ELISA quantification, cell viability was calculated using Hoechst staining allowing the quantity of dermal proteins to be weighted to the number of viable cells.
The quantity of collagen I is evaluated using the quantity of PIP (“carboxU-terminal pro-peptide of procollagen type I”) which is a peptide fragment resulting from the enzymatic degradation of procollagen present outside the fibroblast in the culture supernatant medium. […]

[8] = tested on: Fibronectin; assay: ELISA assay of fibronectin in culture supernatant of human dermal fibroblasts; assay type: cell-based; conditions: 5 ppm peptide; normal human dermal fibroblasts; 72 hours; ELISA weighted to viable cells
Description: as §6, §7
(§8) The effect of the QTAV tetrapeptide on ECM protein expression by fibroblasts as measured by ELISA (column 1) versus tetrapeptide not conforming to the QTAV structure (column 2) are presented in the table below (table 1). Results are expressed as % increase versus the negative control.

[9] = tested on: Decorin; assay: ELISA assay of decorin in culture supernatant of human dermal fibroblasts; assay type: cell-based; conditions: 5 ppm peptide; normal human dermal fibroblasts; 72 hours; ELISA weighted to viable cells
Description: as §6, §7, §8

[10] = tested on: Fibrillin-1; assay: Immunofluorescence of Fibrillin-1 fibre abundance in primary human dermal fibroblasts; assay type: cell-based; conditions: HDF cells, 5 days
Description: Immunofluorescence relies on the use of antibodies to label a specific protein with a fluorescent dye such as fluorescein isothiocyanate (FITC). In the following experiments, indirect immunofluorescence is used where a primary antibody first recognises and attaches to the specific protein, in this case fibrillin-1, and then a secondary antibody conjugated with FITC directed against the primary antibody is used for detection.
For all experiments, the control liquid stock was prepared by dissolving the powdered peptides in DMSO (Dimethyl Sulfoxide solvent). Peptide powders were dissolved in DMSO at recommended part per million concentrations and then further diluted in the cell culture medium and combined to obtain the desired peptide ratio.
Fibrillin-1 expression was determined using immunofluorescence. Primary human dermal fibroblast (I-IDF) cells were purchased from Promo Cell and came from a donor. […]
The antibody binding to Fibrillin-1 fibres was visualised using a Nikon Eclipse 100 microscope fluorescence setting using an excitation lens for fluorescein isothiocyanate (FITC). […] ImageJ software was used to quantify the Fibrillin-1 fibre abundance and coverage in each image using a threshold of 235 measuring the fibre density.
Results are expressed as a percentage increase in fibrillin abundance compared to untreated control. […]

[11] = tested on: proteoglycans, UV DNA repair proteins, basement membrane protein and cell-adhesion proteins; assay: LC-MS/MS protein families overview (bubble plot FIG. 1) in HDFs; assay type: cell-based, human; conditions: 8 ppm peptide, result in words
Description: as §1, with “protocol. […]” for “protocol.”
Samples (200 ng) were ran on an UltiMate® 3000 Rapid Separation Liquid Chromatographer coupled to a Q Exactive™ Hybrid Quadrupole-Orbitrap™ Mass Spectrometer for 90-minutes per sample run. […] Subsequent protein identification and data-dependent quantification was performed using Progenesis QI. […]

Substance	LGALS3 (Cell adhesion) protein enhanced versus untreated control [1] [%]	CDH2 (Cell adhesion) protein enhanced versus untreated control [2] [%]	LAMB2 (Basement membrane) protein enhanced versus untreated control [3] [%]	RAD23A (UV DNA repair) protein enhanced versus untreated control [4] [%]	CSPG2 (Proteoglycans) protein enhanced versus untreated control [5] [%]	NID1 (Basement membrane) protein enhanced versus untreated control [6]	Collagen 1 (PIP), % increase versus the negative control [7]	Fibronectin, % increase versus the negative control [8]	Decorin, % increase versus the negative control [9]	Fibrillin-1, percentage increase in fibrillin abundance compared to untreated control ([10]; 10 ppm peptide)	enhancement of protein families (proteoglycans, UV DNA repair proteins, basement membrane proteins, cell adhesion proteins) ([11]; FIG. 1 bubble plot)	protein synthesis in comparison to the control ([11]; HDFs, LC-MS/MS)	Fibrillin-1, percentage increase in fibrillin abundance compared to untreated control ([10]; 12.5 ppm peptide)
Pal-GPSG-OH	2	85	25	51	20	28%	–	–	–	–	–	–	–
Pal-GYIL-OH	–	–	–	–	–	–	−4%	−23%	+2%	+3%	–	–	–
Pal-LSPD-OH	5	39	40	5	5	27%	–	–	–	–	–	–	–
Pal-LSPG-OH	24	10	22	94	<1	6.60%^	–	–	–	–	–	–	–
Pal-QTAV-OH (Palmitoyl-QTAV-OH; SMILES CCCCCCCCCCCCCCCC(=O)N[C@@H](CCC(N)=O)C(=O)N[C@H](C(=O)N[C@@H](C)C(=O)N[C@H](C(=O)O)C(C)C)[C@@H](C)O) [palmitoyl tetrapeptide Gln-Thr-Ala-Val with free C-terminal OH, according to the invention]	32	69	27	230	31	32%	+59%	+87%	+33%	–	the only sequence to significantly enhance	overall enhancement of protein synthesis	+84%
